The source of these data is patent US12252524B2, “GIP/GLP1 co-agonist compounds” (Eli Lilly and Company, priority 2018, dated 2025).

For orientation: EC50 means the concentration needed to bring the measured effect to its halfway point. In general, Ki refers to a dissociation constant, usually derived from enzyme kinetics or from competition with a known ligand.

Experiment [1] concerns the target T1, gastric inhibitory peptide receptor (GIPR) (Homo sapiens, UniProt P48546).
T1 sequence (P48546 22-466): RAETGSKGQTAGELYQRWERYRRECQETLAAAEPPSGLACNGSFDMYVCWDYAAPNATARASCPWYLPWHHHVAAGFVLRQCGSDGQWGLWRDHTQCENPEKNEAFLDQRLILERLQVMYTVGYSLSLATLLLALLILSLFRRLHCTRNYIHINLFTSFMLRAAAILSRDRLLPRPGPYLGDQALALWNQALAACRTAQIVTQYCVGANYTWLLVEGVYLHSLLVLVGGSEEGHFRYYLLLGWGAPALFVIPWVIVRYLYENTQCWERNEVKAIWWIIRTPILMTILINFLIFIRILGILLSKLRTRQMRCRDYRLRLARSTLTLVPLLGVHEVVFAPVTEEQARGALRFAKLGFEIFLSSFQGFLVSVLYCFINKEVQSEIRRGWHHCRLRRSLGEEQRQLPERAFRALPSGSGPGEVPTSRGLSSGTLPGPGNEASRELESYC
Nature of the experiment: cAMP pharmacological functional assay in presence of casein, hGIPR. Type of experiment: cell-based. The settings on record: HEK293 cells expressing hGIPR, 0.1% Casein, geometric mean; read-out: hGIPR cAMP Rel EC50 nM (SEM, n).

Experiment [2] addresses human GLP-1R (Homo sapiens, UniProt P43220). The experiment can be described thus: [125I]-GLP-1 binding (SPA), human GLP-1 receptor. On the set-up: expressed in transfected cells; crude membranes. Particulars: read-out: hGLP1R Ki, (nM) (SEM, n). In a few lines: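 Membranes: hypotonic lysis (50 mM Tris HCl, pH 7.5, protease inhibitors), Potter-Elvehjem homogenization, high-speed pellet (35000×g 1 h or 25000×g 30 min, 4° C.). Buffer: 25 mM HEPES pH 7.4, 2.5 mM CaCl2, 1 mM MgCl2. Four-parameter IC50 fit; Ki as geometric mean ± SEM.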

In experiment [3] the target is T2, human Gcg receptor (Homo sapiens, UniProt P47871).
T2 construct: expressed in transfected cells; crude membranes
T2 sequence (P47871 26-477): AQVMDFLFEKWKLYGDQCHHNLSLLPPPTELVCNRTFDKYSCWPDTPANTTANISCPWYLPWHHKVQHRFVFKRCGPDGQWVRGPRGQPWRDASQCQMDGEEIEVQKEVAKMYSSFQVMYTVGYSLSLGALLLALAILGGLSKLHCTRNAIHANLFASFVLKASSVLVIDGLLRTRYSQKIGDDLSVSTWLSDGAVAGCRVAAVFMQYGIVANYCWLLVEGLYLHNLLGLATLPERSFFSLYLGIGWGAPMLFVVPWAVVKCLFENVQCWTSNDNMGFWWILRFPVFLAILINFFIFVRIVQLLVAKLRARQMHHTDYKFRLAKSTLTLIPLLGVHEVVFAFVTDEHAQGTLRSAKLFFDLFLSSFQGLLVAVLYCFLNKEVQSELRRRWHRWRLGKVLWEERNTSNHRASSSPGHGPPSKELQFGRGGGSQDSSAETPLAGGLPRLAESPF
Nature of the experiment: [125I]-Glucagon binding (SPA), human Gcg receptor. Particulars: read-out: hGLcgR Ki, nM (SEM, n). In a few lines: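 Crude membranes from cells expressing the receptor, prepared by hypotonic lysis in 50 mM Tris HCl pH 7.5 with protease inhibitors, homogenization and differential centrifugation, were used in a WGA-bead SPA. Binding buffer: 25 mM HEPES pH 7.4, 2.5 mM CaCl2, 1 mM MgCl2, bacitracin, Tween-20.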

For experiment [4], the target named is T3, human GIP receptor (Homo sapiens, UniProt P48546).
T3 construct: expressed in transfected cells; crude membranes
T3 sequence (P48546 22-466): T1 sequence (P48546 22-466)
The experiment can be described thus: [125I]-GIP binding (SPA), human GIP receptor. The settings on record: read-out: hGIPR Ki, nM (SEM, n).

For experiment [5], the target named is human GLP-1 receptor (GLP-1R) (Homo sapiens, UniProt P43220). Nature of the experiment: cAMP pharmacological functional assay in presence of casein, hGLP-1R. Format: cell-based. Particulars: HEK293 cells expressing hGLP-1R, 0.1% Casein, geometric mean; read-out: hGLP1R cAMP Rel EC50 nM (SEM, n).
Sequence of human GLP-1 receptor (GLP-1R) (P43220 24-463): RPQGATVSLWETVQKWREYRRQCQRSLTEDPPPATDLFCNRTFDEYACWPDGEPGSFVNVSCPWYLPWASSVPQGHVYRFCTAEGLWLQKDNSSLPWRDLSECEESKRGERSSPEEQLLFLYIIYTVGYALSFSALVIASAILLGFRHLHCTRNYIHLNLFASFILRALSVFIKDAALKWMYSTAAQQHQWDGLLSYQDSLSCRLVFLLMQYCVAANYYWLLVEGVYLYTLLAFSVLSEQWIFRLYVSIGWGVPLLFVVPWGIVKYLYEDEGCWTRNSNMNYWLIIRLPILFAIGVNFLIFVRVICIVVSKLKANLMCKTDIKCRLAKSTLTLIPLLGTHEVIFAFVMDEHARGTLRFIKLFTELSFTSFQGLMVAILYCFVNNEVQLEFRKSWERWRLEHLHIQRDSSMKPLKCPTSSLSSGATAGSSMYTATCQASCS

Numbered stars: 1 amine (or outer) side, 2 acyl side, 3 side chain; on linkers, the order of the positions; unused ones are H or OH. Square brackets hold non-standard residues; d marks the D form. Side chains are listed from the residue outwards. Peptide text beside a SMILES is read from it. * marks the point of attachment. C20 diacid = O=C(O)CCCCCCCCCCCCCCCCCCC(=O)*; γGlu = O=C(O)[C@H](CCC(=O)[*:2])N[*:1]; Desaminotyrosyl = O=C(CCc1ccc(O)cc1)*; αMeF = C[C@](N)(Cc1ccccc1)C(=O)O; Aad = N[C@@H](CCCC(=O)O)C(=O)O; αMeL = CC(C)C[C@](C)(N)C(=O)O; AEEA = NCCOCCOCC(=O)O; Aib = CC(C)(N)C(=O)O

Sequence of human GLP-1R (P43220 24-463): as above

Turning to `CC[C@H](C)[C@H](NC(=O)[C@H](CC(C)C)NC(=O)[C@H](Cc1ccc(O)cc1)NC(=O)[C@H](CCC(=O)O)NC(=O)[C@@H](NC(=O)[C@H](Cc1ccccc1)NC(=O)[C@H](C)NC(=O)C(C)(C)NC(=O)[C@H](CCC(N)=O)NC(=O)[C@H](C)NC(=O)[C@H](CCCCNC(=O)COCCOCCNC(=O)COCCOCCNC(=O)CC[C@H](NC(=O)CCCCCCCCCCCCCCCCCCC(=O)O)C(=O)O)NC(=O)[C@H](CCCCN)NC(=O)[C@H](CC(=O)O)NC(=O)[C@H](CC(C)C)NC(=O)[C@H](CC(C)C)NC(=O)[C@@H](NC(=O)[C@H](CO)NC(=O)[C@H](CC(C)C)NC(=O)[C@H](CC(=O)O)NC(=O)[C@H](CO)NC(=O)[C@@H](NC(=O)[C@](C)(Cc1ccccc1)NC(=O)[C@@H](NC(=O)CNC(=O)[C@H](CCC(=O)O)NC(=O)C(C)(C)NC(=O)[C@@H](N)Cc1ccc(O)cc1)[C@@H](C)O)[C@@H](C)O)[C@@H](C)CC)[C@@H](C)CC)C(=O)N[C@@H](CCC(=O)O)C(=O)NCC(=O)NCC(=O)N1CCC[C@H]1C(=O)N[C@@H](CO)C(=O)N[C@@H](CO)C(=O)NCC(=O)N[C@@H](C)C(=O)N1CCC[C@H]1C(=O)N1CCC[C@H]1C(=O)N1CCC[C@H]1C(=O)N[C@@H](CO)C(N)=O` [Example 129] (H-Y[Aib]EGT[αMeF]TSDLSILLDKK([AEEA-AEEA-γGlu-C20 diacid])AQ[Aib]AFIEYLIEGGPSSGAPPPS-NH2), the concentration giving a half-maximal response (EC50) worked out at 0.106 nM in experiment [1] and 0.121 nM in experiment [5]. The Ki in experiment [2] amounted to 1 nM; in experiment [3], 14.9 nM; in experiment [4], 0.0278 nM.

`CC[C@H](C)[C@H](NC(=O)[C@H](CC(C)C)NC(=O)[C@H](Cc1ccc(O)cc1)NC(=O)[C@H](CCC(=O)O)NC(=O)[C@@H](NC(=O)[C@H](Cc1ccccc1)NC(=O)[C@H](C)NC(=O)C(C)(C)NC(=O)[C@H](CCC(N)=O)NC(=O)[C@H](C)NC(=O)[C@H](CCCCNC(=O)COCCOCCNC(=O)COCCOCCNC(=O)CC[C@H](NC(=O)CCCCCCCCCCCCCCCCCCC(=O)O)C(=O)O)NC(=O)[C@H](CCCCN)NC(=O)[C@H](CC(=O)O)NC(=O)[C@H](CC(C)C)NC(=O)[C@H](CC(C)C)NC(=O)[C@@H](NC(=O)[C@H](CO)NC(=O)[C@H](CCC(=O)O)NC(=O)[C@H](CC(=O)O)NC(=O)[C@H](CO)NC(=O)[C@@H](NC(=O)[C@](C)(Cc1ccccc1)NC(=O)[C@@H](NC(=O)CNC(=O)[C@H](CCC(=O)O)NC(=O)C(C)(C)NC(=O)[C@@H](N)Cc1ccc(O)cc1)[C@@H](C)O)[C@@H](C)O)[C@@H](C)CC)[C@@H](C)CC)C(=O)N[C@@H](CCC(=O)O)C(=O)NCC(=O)NCC(=O)N1CCC[C@H]1C(=O)N[C@@H](CO)C(=O)N[C@@H](CO)C(=O)NCC(=O)N[C@@H](C)C(=O)N1CCC[C@H]1C(=O)N1CCC[C@H]1C(=O)N1CCC[C@H]1C(=O)N[C@@H](CO)C(N)=O` [Example 130] (H-Y[Aib]EGT[αMeF]TSDESILLDKK([AEEA-AEEA-γGlu-C20 diacid])AQ[Aib]AFIEYLIEGGPSSGAPPPS-NH2; N-terminus assumed): the EC50 in experiment [1] was found to be 1.55 nM; in experiment [5], 0.368 nM. The inhibitory constant (Ki) was 3.66 nM in experiment [2], over 1060 nM in experiment [3] and 0.177 nM in experiment [4].

Regarding `CC[C@H](C)[C@H](NC(=O)[C@H](CC(C)C)NC(=O)[C@H](Cc1ccc(O)cc1)NC(=O)[C@H](CCC(=O)O)NC(=O)[C@@H](NC(=O)[C@H](Cc1ccccc1)NC(=O)[C@H](C)NC(=O)C(C)(C)NC(=O)[C@H](CCC(N)=O)NC(=O)[C@H](C)NC(=O)[C@H](CCCCNC(=O)COCCOCCNC(=O)COCCOCCNC(=O)CC[C@H](NC(=O)CCCCCCCCCCCCCCCCCCC(=O)O)C(=O)O)NC(=O)[C@H](CCC(=O)O)NC(=O)[C@H](CC(=O)O)NC(=O)[C@H](CC(C)C)NC(=O)C(C)(C)NC(=O)[C@@H](NC(=O)[C@H](CO)NC(=O)[C@H](Cc1ccc(O)cc1)NC(=O)[C@H](CC(=O)O)NC(=O)[C@H](CO)NC(=O)[C@@H](NC(=O)[C@](C)(Cc1ccccc1)NC(=O)[C@@H](NC(=O)CNC(=O)[C@H](CCC(=O)O)NC(=O)C(C)(C)NC(=O)CCc1ccc(O)cc1)[C@@H](C)O)[C@@H](C)O)[C@@H](C)CC)[C@@H](C)CC)C(=O)N[C@@H](CCC(=O)O)C(=O)NCC(=O)NCC(=O)N1CCC[C@H]1C(=O)N[C@@H](CO)C(=O)N[C@@H](CO)C(=O)NCC(=O)N[C@@H](C)C(=O)N1CCC[C@H]1C(=O)N1CCC[C@H]1C(=O)N1CCC[C@H]1C(=O)N[C@@H](CO)C(N)=O` [Example 133] (Desaminotyrosyl-[Aib]EGT[αMeF]TSDYSI[Aib]LDEK([AEEA-AEEA-γGlu-C20 diacid])AQ[Aib]AFIEYLIEGGPSSGAPPPS-NH2), the results for the concentration giving a half-maximal response (EC50) in experiment [1] and in experiment [5] were 0.0879 nM and 0.0436 nM, respectively. In addition, the inhibition constant Ki stood at 11.4 nM in experiment [2], 216 nM in experiment [3] and 0.157 nM in experiment [4].

Consider `CC[C@H](C)[C@H](NC(=O)[C@H](CC(C)C)NC(=O)[C@H](Cc1ccc(O)cc1)NC(=O)[C@H](CCC(=O)O)NC(=O)[C@@H](NC(=O)[C@H](Cc1ccccc1)NC(=O)[C@H](C)NC(=O)C(C)(C)NC(=O)[C@H](CCC(N)=O)NC(=O)[C@H](C)NC(=O)[C@H](CCCCNC(=O)COCCOCCNC(=O)COCCOCCNC(=O)CC[C@H](NC(=O)CCCCCCCCCCCCCCCCCCC(=O)O)C(=O)O)NC(=O)[C@H](CCCCN)NC(=O)[C@H](CC(=O)O)NC(=O)[C@H](CC(C)C)NC(=O)[C@H](CC(C)C)NC(=O)[C@@H](NC(=O)[C@H](CO)NC(=O)[C@H](Cc1ccc(O)cc1)NC(=O)[C@H](CC(=O)O)NC(=O)[C@H](CO)NC(=O)[C@@H](NC(=O)[C@H](Cc1ccccc1)NC(=O)[C@@H](NC(=O)CNC(=O)[C@H](CC(N)=O)NC(=O)C(C)(C)NC(=O)[C@@H](N)Cc1c[nH]cn1)[C@@H](C)O)[C@@H](C)O)[C@@H](C)CC)[C@@H](C)CC)C(=O)N[C@@H](CCC(=O)O)C(=O)NCC(=O)NCC(=O)N1CCC[C@H]1C(=O)N[C@@H](CO)C(=O)N[C@@H](CO)C(=O)NCC(=O)N[C@@H](C)C(=O)N1CCC[C@H]1C(=O)N1CCC[C@H]1C(=O)N1CCC[C@H]1C(=O)N[C@@H](CO)C(N)=O` [Example 135] (H-H[Aib]NGTFTSDYSILLDKK([AEEA-AEEA-γGlu-C20 diacid])AQ[Aib]AFIEYLIEGGPSSGAPPPS-NH2), for which the values for the EC50 in experiment [1] and in experiment [5] were 0.373 nM and 0.131 nM, respectively. The Ki in experiment [2] is 3.01 nM; in experiment [3] it was 454 nM; in experiment [4], 0.161 nM.

Consider `CC[C@H](C)[C@H](NC(=O)[C@H](CC(C)C)NC(=O)[C@H](Cc1ccc(O)cc1)NC(=O)[C@H](CCC(=O)O)NC(=O)[C@@H](NC(=O)[C@H](Cc1ccccc1)NC(=O)[C@H](CCCC(=O)O)NC(=O)C(C)(C)NC(=O)[C@H](CCC(N)=O)NC(=O)[C@H](C)NC(=O)[C@H](CCCCNC(=O)COCCOCCNC(=O)COCCOCCNC(=O)CC[C@H](NC(=O)CCCCCCCCCCCCCCCCCCC(=O)O)C(=O)O)NC(=O)[C@H](CCCCN)NC(=O)[C@H](CC(=O)O)NC(=O)[C@H](CC(C)C)NC(=O)[C@](C)(CC(C)C)NC(=O)[C@@H](NC(=O)[C@H](CO)NC(=O)[C@H](Cc1ccc(O)cc1)NC(=O)[C@H](CC(=O)O)NC(=O)[C@H](CO)NC(=O)[C@@H](NC(=O)[C@](C)(Cc1ccccc1)NC(=O)[C@@H](NC(=O)CNC(=O)[C@H](CCC(=O)O)NC(=O)C(C)(C)NC(=O)[C@@H](N)Cc1ccc(O)cc1)[C@@H](C)O)[C@@H](C)O)[C@@H](C)CC)[C@@H](C)CC)C(=O)N[C@@H](CCC(=O)O)C(=O)NCC(=O)NCC(=O)N1CCC[C@H]1C(=O)N[C@@H](CO)C(=O)N[C@@H](CO)C(=O)NCC(=O)N[C@@H](C)C(=O)N1CCC[C@H]1C(=O)N1CCC[C@H]1C(=O)N1CCC[C@H]1C(=O)N[C@@H](CO)C(N)=O` [Example 137] (H-Y[Aib]EGT[αMeF]TSDYSI[αMeL]LDKK([AEEA-AEEA-γGlu-C20 diacid])AQ[Aib][Aad]FIEYLIEGGPSSGAPPPS-NH2), for which the 50% effective concentration (EC50) is 0.0333 nM in experiment [1] and 0.0397 nM in experiment [5]. For the same compound, the Ki is 1.24 nM in experiment [2], 98.1 nM in experiment [3] and 0.0373 nM in experiment [4].
